From ChEMBL document CHEMBL3745629, “Novel Amino-pyrazole Ureas with Potent In Vitro and In Vivo Antileishmanial Activity” (J Med Chem, 2015)

How the values were obtained:
Assay type in all cases: ADME, organism-based, Mesocricetus auratus
Conditions in all cases: in vivo
[1] = Tmax in golden hamster at 50 mg/kg, po
[2] = Cmax in golden hamster at 50 mg/kg, po; design: dose 50 mg/kg, route oral
[3] = AUC (0 to 24 hrs) in golden hamster at 50 mg/kg, po; design: dose 50 mg/kg, time < 24 hr, route oral

- Tmax [1]: 1.33 h
- Cmax [2]: 5680 ng/mL
- AUC(0-t) at 24 h [3]: 25400 ng·h/mL
Structure (SMILES): O=C(Nc1cc(-c2ccccn2)n[nH]1)N1CCN(c2ccc(F)cc2)CC1
